Molecules are shown by their SMILES.

The assay deals with Voltage-dependent L-type calcium channel (Cavia porcellus). Briefly: Displacement of [3H]nitrendipine from dihydropyridine receptor of guinea pig myocardial membranes. (In general: Displacement assays read how much labelled ligand stays bound in the presence of the test substance.)
For the compound `COC(=O)C1C(C)=NC(SC)=NC1c1cc([N+](=O)[O-])ccc1SC` (stereo unspecified) [6-Methyl-2-methylsulfanyl-4-(2-methylsulfanyl-5-nitro-phenyl)-1,4-dihydro-pyrimidine-5-carboxylic acid methyl ester], the Kd is 2700 nM.

With `CSC1=NC2C(=C(C)N1)C(=O)OCCCCCSc1ccc([N+](=O)[O-])cc12` (stereo unspecified) [4-Methyl-2-methylsulfanyl-15-nitro-3,8,9,10,11,16b-hexahydro-7H-6-oxa-12-thia-1,3-diaza-dibenzo[a,c]cyclododecen-5-one], the dissociation constant (Kd) was determined as 873 nM.

Consider `CSC1=NC(c2cccc([N+](=O)[O-])c2)C2=C(COC2=O)N1` (stereo unspecified) [2-Methylsulfanyl-4-(3-nitro-phenyl)-4,7-dihydro-1H-furo[3,4-d]pyrimidin-5-one], for which the Kd came to 36900 nM.

Regarding `CSC1=NC(c2ccccc2SC)c2c(coc2O)N1` (stereo unspecified) [2-Methylsulfanyl-4-(2-methylsulfanyl-phenyl)-4,7-dihydro-1H-furo[3,4-d]pyrimidin-5-one], the Kd was found to be 45200 nM.

For the compound `CSC1=NC(C)=C2C(=O)OCCCCCSc3c(cccc3[N+](=O)[O-])C2N1` (stereo unspecified) [4-Methyl-2-methylsulfanyl-13-nitro-3,8,9,10,11,16b-hexahydro-7H-6-oxa-12-thia-1,3-diaza-dibenzo[a,c]cyclododecen-5-one], the Kd was determined as 5 nM.

Consider `CSC1=NC2=C(C(=O)OC2)C(c2cccc([N+](=O)[O-])c2SC)N1` (stereo unspecified) [2-Methylsulfanyl-4-(2-methylsulfanyl-3-nitro-phenyl)-4,7-dihydro-1H-furo[3,4-d]pyrimidin-5-one], for which the Kd turned out to be 13700 nM.

Take `CSC1=NC2c3ccccc3SCCCCCOC(=O)C2C(C)=N1` (stereo unspecified) [4-Methyl-2-methylsulfanyl-3,8,9,10,11,16b-hexahydro-7H-6-oxa-12-thia-1,3-diaza-dibenzo[a,c]cyclododecen-5-one]: the Kd stood at 18 nM.

As for `CSC1=NC(c2cc([N+](=O)[O-])ccc2SC)C2=C(COC2=O)N1` (stereo unspecified) [2-Methylsulfanyl-4-(2-methylsulfanyl-5-nitro-phenyl)-4,7-dihydro-1H-furo[3,4-d]pyrimidin-5-one], the Kd was over 50000 nM.

Turning to `COC(=O)C1C(C)=NC(SC)=NC1c1cccc([N+](=O)[O-])c1` (stereo unspecified) [6-Methyl-2-methylsulfanyl-4-(3-nitro-phenyl)-1,4-dihydro-pyrimidine-5-carboxylic acid methyl ester], the Kd was 480 nM.

Take `CCCCSc1ccccc1C1N=C(SC)Nc2coc(O)c21` (stereo unspecified) [4-(2-Butylsulfanyl-phenyl)-2-methylsulfanyl-4,7-dihydro-1H-furo[3,4-d]pyrimidin-5-one]: the Kd is over 50000 nM.

On to `COC(=O)C1C(C)=NC(SC)=NC1c1ccccc1SC` (stereo unspecified) [6-Methyl-2-methylsulfanyl-4-(2-methylsulfanyl-phenyl)-1,4-dihydro-pyrimidine-5-carboxylic acid methyl ester], for which the Kd worked out at 1520 nM.

Broadly, the Kd is the concentration at which binding is half-saturated.

(Values after BindingDB's records for doi:10.1021/jm00001a017 (Bristol-Myers Squibb Pharmaceutical Research Institute, 1995).)
